Results from patent US20150064710A1, “METHOD FOR INHIBITING CELL GROWTH, NUCLEIC ACID MOLECULE HAVING RNA INTERFERENCE EFFECT ON NEK10 VARIANT GENE, AND ANTICANCER AGENT” (Nippon Kayaku Kabushiki Kaisha, priority 2011, published 2015).

How the values were obtained:
MDA-MB-231 cells = test: Growth inhibitory effect of NEK10 siRNA on cancer cells (methylene blue assay); type: cell-based; details: MDA-MB-231 breast cancer cells; 72 hours after siRNA transfection; absorbance at 660 nm; control siRNA treatment group of first experiment = 100
Procedure: NEK10 siRNA #1 and NEK10 siRNA #2 were confirmed to have growth inhibitory effects on cancer cells. Namely, a study was conducted by methylene blue assay to determine whether cell growth is inhibited by knocking down NEK10 variant gene by transfecting the cells with NEK10 siRNA #1 and NEK10 siRNA #2.
MDA-MB-231 cells were transfected with each siRNA in the same manner as previously described (Confirmation of Expression Inhibitory Effect on NEK10 Variant mRNA) followed by culturing for 72 hours after transfection. After culturing, the medium was removed followed by the addition of 1000 μL of methanol and allowing to stand for 2 minutes at room temperature to fix the cells. After removing the methanol, 1000 μL of dye solution (0.05% methylene blue solution) were added followed by dyeing for 30 minutes. After washing three times with 4 mL of distilled water, 2 mL of a 3% HCl solution were added followed by measurement of the absorbance of methylene blue at 660 nm using a microplate reader (BioRad).
The experiment was conducted in triplicate and the same experiment was repeated three times. The average triplicate value of the control siRNA treatment group of the first experiment was used as a control, the cell growth rates (%) were calculated according to the following Equation (5) using the average triplicate values of the siRNA treatment group of each experiment. […]

NEK10 variant mRNA = test: Expression inhibitory effect on NEK10 variant mRNA (real-time PCR using SYBR Green after siRNA transfection); type: cell-based, human; details: breast cancer cell line MDA-MB-231; siRNA (20 nM) with Lipofectamine RNAiMAX; 72 hours culture after transfection; first control siRNA treatment group = 100
Source text: After carrying out siRNA treatment by transfecting cells with siRNA consisting of the combination of sense RNA consisting of the base sequence represented by SEQ ID NO: 2 and antisense RNA consisting of the base sequence represented by SEQ ID NO: 3 (to be referred to as NEK10 siRNA #1) and siRNA consisting of the combination of sense RNA consisting of the base sequence represented by SEQ ID NO: 4 and antisense RNA consisting of the base sequence represented by SEQ ID NO: 5 (to be referred to as NEK10 siRNA #2), NEK10 variant mRNA was measured by real-time PCR using SYBR™ Green to study the knockdown effects on NEK10 variant mRNA.
Breast cancer cell line MDA-MB-231, which was confirmed to express NEK10 variant mRNA in Example 1, was transfected with control siRNA, NEK10 siRNA #1 or NEK10 siRNA #2, and NEK10 variant mRNA following siRNA treatment was measured by real-time PCR using SYBR™ Green to study the knockdown effects on NEK10 variant mRNA of each siRNA. The control siRNA was purchased from Invitrogen, and siRNA synthesized by Invitrogen was used for NEK10 siRNA #1 and NEK10 siRNA #2. […]
Using 500 ng of the purified RNA, cDNA was prepared in the same manner as Reference Example 1 using the reverse transcriptase Superscript III (Invitrogen). Ct values were measured in the same manner as Reference Example 1 using 1 μL of the resulting cDNA as template. […]

NEK10 siRNA #1: siRNA of sense RNA SEQ ID NO: 2 (5'-GAAAUCCUGUCAGAUGAUAACUUCA-3') and antisense RNA SEQ ID NO: 3 (antisense UGAAGUUAUCAUCUGACAGGAUUUC; RNA, backbone not given here)
cell growth rate (MDA-MB-231 cells): 34±14% | percentage of NEK10 mRNA versus the control (NEK10 variant mRNA): 11±0.5%

NEK10 siRNA #2: siRNA of sense RNA SEQ ID NO: 4 (5'-UCUGCCUUGUUUGUUCACCACUAUU-3') and antisense RNA SEQ ID NO: 5 (antisense AAUAGUGGUGAACAAACAAGGCAGA; RNA, backbone not given here)
cell growth rate (MDA-MB-231 cells): 58±17% | percentage of NEK10 mRNA versus the control (NEK10 variant mRNA): 86±7.4%
